{"source": "patent US20160129005A1", "about": "“ADENINE DERIVATIVES HAVING IMMUNOMODULATING ANTI-INFLAMMATORY AND ANALGESIC ACTIVITY” (MEDESTEA RESEARCH & PRODUCTION S.p.A., priority 2011, published 2016)", "key": {"[1]": {"tested_on": "lymphopenic mice with deletion of cd3ε", "assay": "Chronic intestinal inflammation by transfer of naive CD4 cells", "format": "in vivo, mouse", "from_the_text": "To study the effect of […] in idiopathic inflammatory diseases of the intestine, such as Crohn's disease and ulcerative colitis, we used lymphopenic mice with deletion of cd3ε. T lymphocytes are not present in these animals, and transfer of naive CD4 cells causes chronic intestinal inflammation. The simultaneous transfer of regulatory T cells (Treg) CD4^+CD25^+ […] the onset of the disease. […] Compared to mice reconstituted with naive CD4 and Treg cells (healthy controls), mice reconstituted with naive CD4 cells and treated with carriers show a severe oedematous-haemorrhagic picture of the colon with splenomegaly and lymphadenomegaly. […] The accumulation of Alcian-positive mucus filaments is visible inside the lumen of the cryptae (arrowheads). In the mice injected with CD4 cells and treated with carriers, muciparous goblet cells have completely disappeared along the cryptae. The cryptae are markedly hyperplasic with intensive cellular crowding, stratification, obliteration of the lumen (arrowheads), and a high frequency of mitotic cells is encountered (arrows). […] The cryptae are moderately hyperplasic and mucus filaments can be seen inside the lumen of the cryptae (arrowheads)."}, "[2]": {"tested_on": "female NZB/NZW F1 mice", "assay": "Systemic lupus erythematosus model", "format": "in vivo, mouse", "method": "Systemic lupus erythematosus (SLE) is a chronic autoimmune disease that generally begins with arthritis or arthralgia. Haematuria or proteinuria may be the only renal symptom, however, lupus glomerulonephritis may lead to acute or terminal renal failure. An experimental model of SLE consists of female F1 mice derived from crossing of the NZB strain with NZW. To evaluate the possible effect of […] in SLE, we treated female NZB/NZW F1 mice with 0.25 mg of […] or carrier 5 days a week for six weeks, starting the treatment when the mice had developed anti-DNA antibodies."}, "[3]": {"tested_on": "Male Sprague-Dawley rats", "assay": "Neuropathic pain: SNI model (lesion of the sciatic nerve)", "format": "in vivo, rat", "from_the_text": "We evaluated the effect of […] in a model of neuropathic pain: the model of lesion of the sciatic nerve. The characteristic feature of neuropathic pain is that both macroglia and microglia (the cells that support the neurons metabolically) can alter their phenotype (reactive gliosis) as a result of some traumatic-inflammatory peripheral events, duplicated in this model. These phenotypic and functional changes can become permanent and the perception of pain can continue even after its primary cause has disappeared. The cells react to the positive lesion by increasing the glial fibrillary acidic protein (GFAP) and the ionized calcium-binding adapter molecule (IBA1). Male Sprague-Dawley rats (250-300 g; Harlan, Italy) were divided into 5 groups.\nGroup I was treated with […] daily from day 1 to day 21; group II was treated daily with the drug from day 1 to day 7 and then again with a single dose on day 14; group III was treated with […] on day 1, day 7 and day 14; group IV was treated with only the vehicle and group V was submitted to a sham operation ([…]). […]\nBehavioural tests were performed daily from day 0 to day 7 and then on alternate days until day 28. Mechanical allodynia was induced by von Frey filament stimulation and the onset of thermal hyperalgesia was measured using the Ugo Basile apparatus according to Hargreaves' method, 1988."}, "[4]": {"tested_on": "mice", "assay": "Asthma: ovalbumin sensitization and aerosol challenge, BALF", "format": "in vivo, mouse", "conditions": "6 mg/kg intratracheal 30 minutes before OA aerosol; FIG. 38", "method": "Sensitization of mice with ovalbumin (OA) adsorbed on aluminium hydroxide, administered intraperitoneally on day 0 and day 7, can cause a similar asthmatic manifestation when the mouse is subsequently (days 19-21) challenged with OA aerosol. The mice were anaesthetized 30 minutes before the OA aerosol and the treated group received an intratracheal injection of […] 6 mg/kg.\nTwenty-four hours after the last administration of OA, a bronchoalveolar lavage was carried out with 3×1 ml of PBS free from calcium and magnesium ions."}, "[5]": {"tested_on": "Tg2576 mice", "assay": "Alzheimer's transgenic murine model Tg2576: behavioural tests and β-amyloid plaques", "format": "in vivo, mouse", "conditions": "4 and 15 mg/kg i.p. daily, 6th to 13th month", "method": "In the transgenic murine model Tg2576 there is no loss of neurons, but there is neuronal deficit and accumulation of β-amyloid plaques. The production of peptides begins to increase rapidly starting from the 6th month of age, accompanied by a progressive cognitive decline. Around the 7th to 8th month, the first plaques develop, which are then diffuse at the 12th month.\nThe mice were treated with […] at 4 and at 15 mg/kg i.p. daily starting from the 6th month of age up to the 13th. Between the 9th and 10th month and between the 12th and 13th month the mice were submitted to behavioural tests, at the 13th month they were sacrificed and immunohistochemical analyses were performed on brain samples to verify modulation of the β-amyloid plaques."}, "[6]": {"conditions": "60 days from the end of treatment"}}}
{"smiles": "C=C(C=O)OC(C=O)n1cnc2c(N)ncnc21", "note": "(stereo not drawn) [2-[1-(6-aminopurin-9-yl)-2-oxoethoxy]prop-2-enal]", "values": [{"measurement": "colon sections stained with Alcian-PAS", "setting": "[1]; mice injected with CD4 cells", "result": "muciparous goblet cells positive to Alcian-PAS are identifiable along the cryptae"}, {"measurement": "macroscopic appearance of colon, spleen and lymph nodes", "setting": "[1]; treatment two weeks after injection of naive CD4 cells, FIG. 31", "result": "dramatic improvement of the inflammation of the colon"}, {"measurement": "histological scores (0-4, Asseman)", "setting": "[1]; vs carriers, no significant difference to healthy control", "result": "significant improvement of the lesions"}, {"measurement": "proteinuria", "setting": "[2]; 0.25 mg 5 days a week for six weeks, two months following the treatment", "result": "did not appear"}, {"measurement": "deposition of immune complexes (histopathological score)", "setting": "[2]; [6]", "result": "significant decrease"}, {"measurement": "glomerular proliferation (histopathological score)", "setting": "[2]; [6]", "result": "significant decrease"}, {"measurement": "lymphocyte infiltration (histopathological score)", "setting": "[2]; [6]", "result": "significant decrease"}, {"measurement": "pain (mechanical allodynia, thermal hyperalgesia)", "setting": "[3]; 6 mg/kg and 30 mg/kg i.p., from first day until 7 days after end of treatment, FIGS. 10-15", "result": "reduces pain significantly"}, {"measurement": "expression of the proteins of reactive gliosis Ibal and GFAP (immunohistochemical analysis)", "setting": "[3]; animals treated daily", "result": "returns almost to the normal levels"}, {"measurement": "immune cells and mediators of inflammation in BALF", "setting": "[4]", "result": "Significantly lower levels of immune cells and mediators of inflammation"}, {"measurement": "score obtained in moving to Y (Y-maze test)", "setting": "[5]", "result": "very encouraging"}, {"measurement": "finding and climbing onto the platform, hidden or visible (water maze test)", "setting": "[5]; vs vehicle", "result": "significantly faster than the control"}]}
